Experimental data published in US20110015274A1, “FORM OF AN […] DERIVATIVE” (priority 2009, published 2011).
Several values for one entry are separate records, joined by “and”; a condition that tells them apart may be missing. Identical values can stand only once. Like-named read-outs stand apart in the source and are kept apart here.

How the values were obtained:
[1] = by volume, wet dispersion in Isopar G, sonicated 3 minutes; mesylate
Description: The particle size parameters measured in the present disclosure have been obtained by means of laser light diffraction technique, and specifically by means of a Malvern Mastersizer S particle size analyzer having characteristics as set out below. Namely, the laser source used was a 2 milliwatt Helium/neon laser (633 nm wavelength); the detection system was a Fourier Transform lens system; the sample was run using a […]; the sample unit was a sample unit for wet measurement, and particularly was a MS1-Small volume Sample Dispersion Unit stirred cell. The wet dispersion was prepared by using a solution of 1.5 g of Soybean Lecithin in 200 mL of Isopar G as a sample dispersant, and the dispersion was controlled by stirring the unit cell. […] The characterization parameters (volume distributions) were measured for at least six times for each sample, and the result is a mean of said measured values for each sample.
A 300RF mm lens and a beam length of 2.4 mm were used. Preparation of sample dispersant: 1.5 g of Soybean Lecithin was added to 200 mL of Isopar G, and the mixture was mixed gently until Lecithin dissolved. […] The paste was delivered to the previously background and corrected measuring cell filled with dispersant (Isopar G) until the obscuration reached the desired level. The suspension was sonicated for 3 minutes. Volume distributions were obtained for at least six measures. After completing the measurements, the sample cell was emptied and cleaned, refilled with suspending medium, and the sampling procedure repeated again. For characterization, the values of D10, D50 and D90 (by volume) were specifically listed, each one being the mean of the measured values available for each characterization parameter.
The notation Dx [also written as D(v, 0.X)] means that X % of the particles have a diameter less than a specified diameter D. Thus a D90 [or D(v, 0.9)] of 100 μm means that 90% of the particles have a diameter less than 100 μm.

[2] = N2 at 77 K, relative pressures 0.05 to 0.3; mesylate
Description: The specific surface area values disclosed in the present disclosure have been obtained by means of a specific surface area analysis technique based on the BET (Brunauer, Emmett and Teller) theory, which is a well-accepted theory known in the art for the calculation of surface areas of solids by means of measuring their physical adsorption of gas molecules (See S. Brunauer, P. H. Emmett and E. Teller, J. Am. Chem. Soc., 1938, 60, 309). In particular, the specific surface area values measured have been calculated from the BET surface area plot obtained by measuring the quantity of nitrogen gas molecules adsorbed by a weighted amount of solid at different relative pressures (P/P0) within the range 0.05 to 0.3, at 77K. Precisely, the measurement of the adsorption of gas molecules was carried out by means of a Micromeritics™ Gemini V equipment having the characteristics as set out below. Namely, the gas used for adsorption measure was nitrogen gas. […] The sample for analysis was degassed (at 30° C. for 10 minutes and at 130° C. for 90 minutes). The determination of the adsorption of nitrogen was measured at 77K and for twelve relative pressures sufficiently dispersed within in the range of 0.05 to 0.3 (i.e. twelve absolute pressures in the range of 38.860001 mmHg to 230.464996 mmHg relative to a saturated pressure of 765.705017 mmHg).
The sample for analysis was degassed at 30° C. for 10 minutes and at 130° C. for 90 minutes.

[3] = Description: The substantial absence of agglomeration in accordance with the present invention can be determined by visual inspection and/or by optical microscopy. […] That is, the smallest agglomerate to be observed by particle size analysis would be the agglomerate resultant of the union of a single crystal with another which would lead to an increase of 100% in the D90 and/or the D50 measured value.
The chromatographic separation was carried out in a Chiralpak IC, 5 μm, 250×4.6 mm I.D column; at 30° C.
The mobile phase was prepared by mixing 950 mL of n-hexane, 40 mL of 2-propanol, 10 mL of ethanol, 4 mL of trifluoroacetic acid and 1 mL of diethylamine. The mixture was mixed thoroughly.
The chromatograph was equipped with a 265 nm detector, and the flow rate was 1.4 mL per minute.
The test samples were prepared by dissolving the appropriate amount of sample to obtain 10 mg per mL in diluent. The diluent was prepared by mixing 89 mL of mobile phase, 10 mL of 2-propanol and 1 mL of diethylamine. The injection volume was 5 μL.
Samples were taken and analyzed after 1, 2, 3 and 6 months storage.

[4] = 25° C.±1° C., 80%±2% relative humidity, 24 hours
Description: The percentage increase in mass was calculated based on the hygroscopicity method described in the European Pharmacopoeia 5.0 (general chapter 5.11).

[5] = WO 2008/019871 Example 8, prepared in isopropanol; cited from earlier work
[6] = cited from earlier work
[7] = heating at 80° C. for 72, 96 or 144 hours, and refluxing in isopropanol for 30 hours; cited from earlier work
[8] = material with D90 of less than 6 μm stored at 25±2° C., 65±5% relative humidity, 5 days; cited from earlier work
[9] = cited from earlier work; remark: listed apart in the source

Row | Structure (SMILES) | Particle size D(v, 0.1) [1] | Particle size D(v, 0.5) [1] | Particle size D(v, 0.9) [1] | Specific Surface Area (BET) [2] | further results
1 | C#CCN[C@@H]1CCc2ccccc21.CS(=O)(=O)O [Example 1, R-(+)-N-propargyl-1-aminoindan mesylate] | 30.6 μm | 89.0 μm | 163.6 μm | 0.0722 m^2/g | 
2 | C#CCN[C@@H]1CCc2ccccc21.CS(=O)(=O)O [Example 2, R-(+)-N-propargyl-1-aminoindan mesylate] | 37.0 μm | 118.7 μm | 246.7 μm |  | 
3 | C#CCN[C@@H]1CCc2ccccc21.CS(=O)(=O)O [Example 3, R-(+)-N-propargyl-1-aminoindan mesylate] | 37.4 μm | 159.6 μm | 404.2 μm | 0.0474 m^2/g | 
4 | C#CCN[C@@H]1CCc2ccccc21.CS(=O)(=O)O [Example 4, R-(+)-N-propargyl-1-aminoindan mesylate] | 54.9 μm | 208.5 μm | 464.0 μm | 0.1434 m^2/g | Total impurities (HPLC) ([3]; 1 month, 40±2° C., 75%±5% relative humidity): <0.05%; Total impurities (HPLC) ([3]; 2 months, 40±2° C., 75%±5% relative humidity): <0.05%; Total impurities (HPLC) ([3]; 3 months, 40±2° C., 75%±5% relative humidity): <0.05%; Total impurities (HPLC) ([3]; 6 months, 40±2° C., 75%±5% relative humidity): <0.05%; Total impurities (HPLC) ([3]; Initial sample): <0.05%; % Mass increase [4]: 0.01%; Hygroscopicity (in words) [4]: not hygroscopic material
5 | C#CCN[C@@H]1CCc2ccccc21.CS(=O)(=O)O [Reference Example 1, R-(+)-N-propargyl-1-aminoindan mesylate] | 17.4 μm | 62.6 μm | 118.0 μm | 0.3216 m^2/g | 
6 | C#CCN[C@@H]1CCc2ccccc21.CS(=O)(=O)O [Reference Example 2, R-(+)-N-propargyl-1-aminoindan mesylate] | 14.7 μm | 60.2 μm | 143.6 μm | 0.2490 m^2/g | 
7 | C#CCN[C@@H]1CCc2ccccc21.CS(=O)(=O)O [Reference Example 3, R-(+)-N-propargyl-1-aminoindan mesylate] | 127.5 μm | 311.2 μm | 611 μm and 611.1 μm | 0.0274 m^2/g | 
8 | C#CCN[C@@H]1CCc2ccccc21.CS(=O)(=O)O [rasagiline mesylate, R-(+)-N-propargyl-1-aminoindan mesylate] |  |  |  |  | Particle size d(0.1) [5]: 13.6±0.05 μm; Particle size d(0.5) [5]: 40.5±0.25 μm; Particle size d(0.9) [5]: 85.7±0.89 μm; Particles below 250 μm [5]: 100%; Behaviour of the powder on storage ([6]; 4 weeks at 40° C., 75% relative humidity in an opened container): transforms into a sticky powder; Behaviour of the powder on storage ([6]; 4 weeks at 60° C. in a closed glass bottle): agglomerates; Change in water content on storage ([6]; 4 weeks storage, WO 2008/019871 Example 5): no substantial changes; Appearance [7]: kept an appearance of white powder; D90 after storage [8]: approximately 151 μm; d(0.9) or D90 after milling ([9]; after milling): 156-189 μm; d(0.9) or D90 before milling ([9]; samples containing large, irregular particles, initial): 386-598 μm
